According to patent US12486253B2, “Therapeutics for the degradation of mutant BRAF” (C4 THERAPEUTICS, INC., priority 2021, dated 2025):
“Also recorded” adds a separate entry of the source. Like-named read-outs stand apart in the source and are kept apart here.

Columns and labels:
[1] = test system: A375-NRAS^Q61K cells; assay: CellTiter-Glo growth inhibition assay, A375-NRAS^Q61K cells; assay type: cell-based; conditions: 96 hr, mean of at least n = 3
Method: (§1) A375-NRAS^Q61K cells (harboring BRAF homozygous V600E mutation and NRAS homozygous Q61K mutation) were purchased from ATCC. DMEM Medium (without phenol red and supplemented with L-glutamine) was purchased from Corning (Corning, NY, USA). CellTiter-Glo® 2.0 Assay was purchased from Promega (Madison, WI, USA). Cell culture flasks and 384-well microplates were acquired from VWR (Radnor, PA, USA) or Corning (Corning, NY, USA).
(§2) A375-NRAS^Q61K cell viability was determined based on quantification of ATP using CellTiter-Glo® 2.0 luminescent Assay kit, which signals the presence of metabolically-active cells. Briefly, test compound was added to 384-well plates at a top concentration of 10 μM with 14 points, half log titration in duplicates. A375-NRAS^Q61K cells were seeded into the 384-well plates in DMEM medium containing 10% FBS at a cell density of 250 cells per well. Cells treated in the absence of the test compound were the negative control, normalized to 100% viability, and cells treated in the absence of CellTiter-Glo® 2.0 were the positive control, normalized to 0% viability. A375 cells were incubated at 37° C. with 5% CO2 for 96 hr. CellTiter-Glo reagent was then added to the cells and Luminescence was acquired on EnVision™ Multilabel Reader (PerkinElmer, Santa Clara, CA, USA).

[2] = test system: phospho-ERK (T202/Y204); assay: HTRF phospho-ERK (T202/Y204) assay in A375-NRAS^Q61K cells; assay type: cell-based; conditions: 24 hrs, mean of at least n = 3, read-out: pERK IC50
Excerpt: as §1, with “without” for “(without”, “L-glutamine” for “L-glutamine)”, “Advanced phospho-ERK (Thr202/Tyr204) HTRF assay kits were” for “CellTiter-Glo® 2.0 Assay was”, “Cisbio (Bedford, MA,” for “Promega (Madison, WI,”
(§3) Degradation of activated phospho-ERK (T202/Y204) protein was determined based on quantification of FRET signal using the Advanced phospho-ERK (T202/Y204) HTRF assay kit. Test compounds were added to the 384-well plate from a top concentration of 10 μM with 11 points, half log titration in duplicates. A375-NRAS^Q61K cells were added into 384-well plates at a cell density of 2000 cells per well. The plates were kept at 37° C. with 5% CO2 for 24 hours. Cells treated in the absence of the test compound were the negative control. Positive control was set by wells containing all reagents but no cells. FRET signal was acquired on EnVision™ Multilabel Reader (PerkinElmer, Santa Clara, CA, USA).

[3] = test system: A375 cells expressing the oncogenic NRAS^Q61K mutation; assay: Cellular growth over time of A375 cells expressing NRAS^Q61K; assay type: cell-based
[4] = test system: A375 cells; assay: CellTiter-Glo cell growth inhibition, A375 cells; assay type: cell-based; conditions: Homo sapiens, A-375, 72 hr, mean of at least n = 3
Method: as §2, with “A375” for “A375-NRAS^Q61K”, “72” for “96”

[5] = test system: phospho-ERK (T202/Y204); assay: HTRF phospho-ERK (T202/Y204) inhibition assay in A375 cells; assay type: cell-based; conditions: Homo sapiens, A-375, 24 hrs, mean of at least n = 3, read-out: pERK IC50
Method: A375 (harboring BRAF homozygous V600E mutation) were purchased from ATCC. DMEM Medium without phenol red and supplemented with L-glutamine was purchased from Corning (Corning, NY, USA). Advanced phospho-ERK (Thr202/Tyr204) HTRF assay kits were purchased from Cisbio (Bedford, MA, USA). Cell culture flasks and 384-well microplates were acquired from VWR (Radnor, PA, USA) or Corning (Corning, NY, USA).
as §3, with “A375” for “A375-NRAS^Q61K”, “8000” for “2000”, “well, respectively.” for “well.”

[6] = test system: H1666 cells endogenously expressing the class III BRAF mutation G466V; assay: Cellular growth over time in H1666 cells; assay type: cell-based; conditions: G466V
[7] = test system: ERK phosphorylation; assay: Western blot of ERK phosphorylation in A375 cells expressing NRAS^Q61K; assay type: cell-based; conditions: 24 hours
[8] = test system: A375 NRAS^Q61K mutant melanoma cell line xenograft; assay: In vivo efficacy in A375 NRAS^Q61K mutant melanoma xenograft; parameters: species or system BALBc/Nude mice; conditions: oral gavage, with MEKi trametinib 0.1 mg/kg BID
[9] = target: BRAF V600E (Homo sapiens, UniProt P15056, V600E); assay: HiBiT cellular BRAF^V600E degradation assay; assay type: cell-based; conditions: for Emax: read-out: HiBit 24 h Emax; for DC50: concentration at which 50% of total cellular BRAF^V600E is degraded
[10] = A375.10 cells, 24 h, residual protein remaining in the cell

Chain of BRAF V600E (P15056 whole entry V600E): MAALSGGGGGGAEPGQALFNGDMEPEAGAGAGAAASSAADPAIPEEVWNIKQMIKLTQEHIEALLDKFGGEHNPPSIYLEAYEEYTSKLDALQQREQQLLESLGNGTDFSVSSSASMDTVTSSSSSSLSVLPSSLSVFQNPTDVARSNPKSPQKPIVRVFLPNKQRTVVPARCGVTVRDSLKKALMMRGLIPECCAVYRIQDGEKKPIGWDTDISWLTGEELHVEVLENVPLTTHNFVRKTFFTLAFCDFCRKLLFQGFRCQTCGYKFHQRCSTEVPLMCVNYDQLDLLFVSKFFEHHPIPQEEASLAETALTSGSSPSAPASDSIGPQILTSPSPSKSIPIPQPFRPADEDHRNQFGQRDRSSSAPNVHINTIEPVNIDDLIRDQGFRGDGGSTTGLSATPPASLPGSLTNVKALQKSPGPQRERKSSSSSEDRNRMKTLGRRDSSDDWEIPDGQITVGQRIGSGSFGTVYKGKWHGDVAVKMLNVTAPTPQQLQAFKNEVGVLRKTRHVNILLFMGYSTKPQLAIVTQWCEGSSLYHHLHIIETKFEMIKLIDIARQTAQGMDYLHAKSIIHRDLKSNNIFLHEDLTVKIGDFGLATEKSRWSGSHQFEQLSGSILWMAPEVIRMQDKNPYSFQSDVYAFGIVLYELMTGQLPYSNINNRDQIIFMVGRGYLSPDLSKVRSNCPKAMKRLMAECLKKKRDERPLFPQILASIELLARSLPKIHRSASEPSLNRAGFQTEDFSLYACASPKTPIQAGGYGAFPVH

Row | DC50 ([9]; A375.10 cells, 24 h) [nM] | Emax [9, 10] [%] | Compound | Emax [9] [%] | other results
1 |  |  | COC(=O)N[C@@H](C)CNc1nccc(-c2cn(C(C)C)nc2-c2cc(Cl)cc(NS(C)(=O)=O)c2F)n1 [encorafenib, reference compound] |  | GI50 [1]: 911 nM; IC50 [2]: 31 nM; cell growth inhibition [3]: does not inhibit cell growth; GI50 [4]: 8 nM; IC50 [5]: 2.1 nM; cell growth inhibition [6]: no activity; also recorded: does not inhibit cell growth; ERK phosphorylation, in combination with trametinib ([7]; with 1 nM trametinib): unable to significantly suppress; ERK phosphorylation, alone ([7]; without trametinib): unable to significantly suppress; tumor response, in combination with trametinib [8]: no activity
2 |  |  | CCN(C)S(=O)(=O)Nc1ccc(F)c(Oc2ccc3ncn(-c4cnc(N5CCN(C(=O)[C@H](CO)N6CCC(c7ccc(N[C@H]8CCC(=O)NC8=O)cc7F)CC6)CC5)nc4)c(=O)c3c2)c1C#N [Example 98, 6-[2-cyano-3-[[ethyl(methyl)sulfamoyl]amino]-6-fluorophenoxy]-3-[2-[4-[(2S)-2-[4-[4-[[(3S)-2,6-dioxopiperidin-3-yl]amino]-2-fluorophenyl]piperidin-1-yl]-3-hydroxypropanoyl]piperazin-1-yl]pyrimidin-5-yl]-4-oxoquinazoline] | 10.1 | 
3 | 22.1 | 8.88 | CCN(C)S(=O)(=O)Nc1ccc(F)c(Oc2ccc3ncn([C@H]4COC5(CCN(C(=O)CN6CCC(c7ccc(N[C@@H]8CCC(=O)NC8=O)cc7F)CC6)CC5)C4)c(=O)c3c2)c1C#N [Example 42, (3R)-3-[6-[2-cyano-3-[[ethyl(methyl)sulfamoyl]amino]-6-fluorophenoxy]-4-oxoquinazolin-3-yl]-8-[2-[4-[4-[[(3R)-2,6-dioxopiperidin-3-yl]amino]-2-fluorophenyl]piperidin-1-yl]acetyl]-1-oxa-8-azaspiro[4.5]decane] |  | 
4 | 51.3 | 10.3 | CCN(C)S(=O)(=O)Nc1ccc(F)c(Oc2ccc3ncn(CC4COC5(CCN(C(=O)CN6CCC(c7ccc(NC8CCC(=O)NC8=O)cc7F)CC6)CC5)C4)c(=O)c3c2)c1C#N (centres unmarked) [Example 36, 3-[[6-[2-cyano-3-[[ethyl(methyl)sulfamoyl]amino]-6-fluorophenoxy]-4-oxoquinazolin-3-yl]methyl]-8-[2-[4-[4-[(2,6-dioxopiperidin-3-yl)amino]-2-fluorophenyl]piperidin-1-yl]acetyl]-1-oxa-8-azaspiro[4.5]decane] |  | 
5 | 37.5 | 11.3 | CCN(C)S(=O)(=O)Nc1ccc(F)c(Oc2ccc3ncn([C@H]4COC5(CCN(C(=O)CN6CC[C@H](c7cc8c(cc7F)c(N7CCC(=O)NC7=O)nn8C)C(F)(F)C6)CC5)C4)c(=O)c3c2)c1C#N (single isomer, unassigned) [Example 203] |  | 
6 | 16.2 | 19.8 | CCN(C)S(=O)(=O)Nc1ccc(F)c(Oc2ccc3ncn([C@H]4COC5(CCN(C(=O)CC6(O)CCN(c7cc8c(cc7F)c(N7CCC(=O)NC7=O)nn8C)CC6)CC5)C4)c(=O)c3c2N)c1C#N [Example 182, (3R)-3-[5-amino-6-[2-cyano-3-[[ethyl(methyl)sulfamoyl]amino]-6-fluorophenoxy]-4-oxoquinazolin-3-yl]-8-[2-[1-[3-(2,4-dioxo-1,3-diazinan-1-yl)-5-fluoro-1-methylindazol-6-yl]-4-hydroxypiperidin-4-yl]acetyl]-1-oxa-8-azaspiro[4.5]decane] |  | 
7 | 29.8 | 10.9 | CCN(C)S(=O)(=O)Nc1ccc(F)c(Oc2ccc3ncn([C@H]4COC5(CCN(C(=O)CN6CC[C@@H](c7cc8c(cc7F)c(N7CCC(=O)NC7=O)nn8C)C(F)(F)C6)CC5)C4)c(=O)c3c2)c1C#N (single isomer, unassigned) [Example 204] |  | 
8 | 142 | 33.8 | COC1CN(S(=O)(=O)Nc2ccc(F)c(Oc3ccc4ncn([C@H]5COC6(CCN(C(=O)CC7(O)CCN(c8cc9c(cc8F)c(N8CCC(=O)NC8=O)nn9C)CC7)CC6)C5)c(=O)c4c3)c2C#N)C1 [Example 193, N-[2-cyano-3-[3-[(3R)-8-[2-[1-[3-(2,4-dioxo-1,3-diazinan-1-yl)-5-fluoro-1-methylindazol-6-yl]-4-hydroxypiperidin-4-yl]acetyl]-1-oxa-8-azaspiro[4.5]decan-3-yl]-4-oxoquinazolin-6-yl]oxy-4-fluorophenyl]-3-methoxyazetidine-1-sulfonamide] |  | 

Row | Compound | DC50 ([9]; A375.10 cells, 24 h) [nM] | Emax [9, 10] [%] | Emax [9] [%] | other results
9 | CCN(C)S(=O)(=O)Nc1ccc(F)c(Oc2ccc3ncn(C4CC5(CCN(C(=O)NC6CCN(c7ccc(NC8CCC(=O)NC8=O)cc7F)CC6)CC5)C4)c(=O)c3c2)c1C#N (centres unmarked) [Example 37, 2-[6-[2-cyano-3-[[ethyl(methyl)sulfamoyl]amino]-6-fluorophenoxy]-4-oxoquinazolin-3-yl]-N-[1-[4-[(2,6-dioxopiperidin-3-yl)amino]-2-fluorophenyl]piperidin-4-yl]-7-azaspiro[3.5]nonane-7-carboxamide] | 48.4 |  | 16.2 | 
10 | Cn1nc(N2CCC(=O)NC2=O)c2cc(F)c(N3CCC(O)(CC(=O)N4CCC5(CC4)C[C@@H](n4cnc6ccc(Oc7c(F)ccc(NS(=O)(=O)C8CCCCC8)c7C#N)cc6c4=O)CO5)CC3)cc21 [Example 188, N-[2-cyano-3-[3-[(3R)-8-[2-[1-[3-(2,4-dioxo-1,3-diazinan-1-yl)-5-fluoro-1-methylindazol-6-yl]-4-hydroxypiperidin-4-yl]acetyl]-1-oxa-8-azaspiro[4.5]decan-3-yl]-4-oxoquinazolin-6-yl]oxy-4-fluorophenyl]cyclohexanesulfonamide] | 40.6 |  | 27.3 | 
